Test results: patent US7199152B2, “TNF-α production inhibitor comprising kavalactone as an active ingredient” (Meiji Dairies Corporation, priority 2000, dated 2007)

Assays:
[1] = system: TNF-α production in BALB/3T3 cells stimulated by okadaic acid; assay: Inhibition of TNF-α production (in vitro) in BALB/3T3 cells stimulated by okadaic acid, ELISA; type: cell-based; conditions: for TNF-α production relative to the TNF-α production of the control: okadaic acid 0.2 μM, 24 hours, control = 100%; for TNF-α production inhibitory effect, overall assessment (in words): BALB/3T3 cells, okadaic acid stimulation
Method: In response to stimulation by okadaic acid (9,10-deepithio-9,10-didehydroacanthifolicin), BALB/3T3 cells produce TNF-α. The compounds of the present invention were investigated in terms of inhibitory effect on TNF-α production.
An MEM medium (product of Nissui) containing 10% fetal calf serum (product of Biocell Laboratory) was injected into 12-well multiplates (product of Corning), and BALB/3T3 cells were disseminated at 2×10^5 cells/well. The cells were cultured in a carbon dioxide gas incubator (5% Co2, humidified, 37° C.). Subsequently, KAVA-1, KAVA-2, KAVA-3, KAVA-4, or KAVA-5 was added to the wells at a concentration shown in FIG. 1, and the cells were cultured for one hour. No KAVA compound was added to the control wells. After completion of culturing, okadaic acid (carcinogenisis promoter isolated from Halichondria okadai) was added to each well at a final concentration of 0.2 μM, and culturing was performed for 24 hours. After completion of this culturing, the TNF-α concentration of the supernatant of each well was measured by means of ELISA system (product of Genzyme). In FIG. 1, the amount of TNF-α release corresponding to each compound concentration is represented by a percent concentration based on the amount of TNF-α release measured for the control (100%).

[2] = system: TNF-α production in serum induced by LPS; assay: TNF-α inhibitory effect (in vivo), LPS-induced serum TNF-α in mice, ELISA; parameters: species or system BALB/c mice; conditions: 40 mg/kg intraperitoneally, LPS 50 μg/mouse i.p. immediately after, serum 90 minutes after LPS
Method: Male BALB/cAnNCrj mice of 6 weeks age were purchased from Japan Charles River, and those having body weights of 30 g or lower were tested.
Seven mice groups, each group consisting of six mice, were provided; i.e., 1) a group to which distilled water for injection was administered (non-treated group) (N); 2) a group to which a 0.3% carboxymethyl cellulose-Na (0.3% CMC-Na) suspension was administered (control group) (C); and 3) five groups to which KAVA-1, KAVA-2, KAVA-3, KAVA-4, and KAVA-5, respectively, were administered (0.3% CMC-Na was used as a solvent).
Each of KAVA-1, KAVA-2, KAVA-3, KAVA-4, and KAVA-5 was prepared to a drug liquid of 40 mg/10 ml. The liquid was intraperitoneally administered at 10 ml/kg (dose: 40 mg/kg), and 0.3% CMC-Na was intraperitoneally administered at 10 ml/kg to each corresponding group. Lipo-polysaccharide (LPS) (product of SIGMA) was dissolved in physiological saline, and the solution was intraperitoneally administered to each mouse in an amount of 0.2 ml (50 μg/mouse) immediately after administration of the drug liquid.
After 90 minutes from administration of LPS, blood was collected from the eye socket, and the collected sample was allowed to stand for one hour at room temperature. Subsequently, the sample was centrifuged at 11,000 rpm for five minutes, and the serum was collected. […]

SMILES	TNF-α production relative to the TNF-α production of the control ([1]; 100 μM compound)	inhibition of serum TNF-α production compared with the control group (C) (in words) [2]	TNF-α production inhibitory effect, overall assessment (in words) [1]	TNF-α production relative to the TNF-α production of the control ([1]; 10 μM compound)	TNF-α production relative to the TNF-α production of the control ([1]; 50 μM compound)	inhibitory effect on TNF-α production (in words) ([1]; concentrations of 50 μM or less)
COC1=CC(=O)O[C@@H](/C=C/c2ccc3c(c2)OCO3)C1 [KAVA-1, (+)-Methysticin]	approximately 39%	almost comparable to that exerted by KAVA-2				
COc1ccc(/C=C/c2cc(OC)cc(=O)o2)cc1 [KAVA-2, Yangonin]	approximately 22%		strong TNF-A production inhibitory effect			
COc1cc(/C=C/c2ccccc2)oc(=O)c1 [KAVA-3, Desmethoxyyangonin]	approximately 0%		strong TNF-A production inhibitory effect	approximately 60%	approximately 22%	
COC1=CC(=O)O[C@@H](CCc2ccccc2)C1 [KAVA-4, (+)-Dihydrokavain]	approximately 60%	significantly (p<0.5) inhibited TNF-α production				no inhibitory effect
COC1=CC(=O)O[C@@H](/C=C/c2ccccc2)C1 [KAVA-5, (+)-Kavain]	approximately 39%					
